This assay concerns the target human mGluR4 (Homo sapiens, UniProt Q14833). The assay can be described thus: potentiation of human mGluR4 in transfected CHO cells, Ca2+-sensitive dye fluorescence, EC20 agonist. The note with it: hEC50, human mGluR4 potentiation; unit inferred.

These results are taken from patent US20130040944A1, “MGLUR4 ALLOSTERIC POTENTIATORS, COMPOSITIONS, AND METHODS OF TREATING NEUROLOGICAL DYSFUNCTION” (VANDERBILT UNIVERSITY, priority 2009, published 2013).

As a reminder, the EC50 is the concentration needed to bring the measured effect to its halfway point.

human mGluR4, sequence (Q14833 33-912): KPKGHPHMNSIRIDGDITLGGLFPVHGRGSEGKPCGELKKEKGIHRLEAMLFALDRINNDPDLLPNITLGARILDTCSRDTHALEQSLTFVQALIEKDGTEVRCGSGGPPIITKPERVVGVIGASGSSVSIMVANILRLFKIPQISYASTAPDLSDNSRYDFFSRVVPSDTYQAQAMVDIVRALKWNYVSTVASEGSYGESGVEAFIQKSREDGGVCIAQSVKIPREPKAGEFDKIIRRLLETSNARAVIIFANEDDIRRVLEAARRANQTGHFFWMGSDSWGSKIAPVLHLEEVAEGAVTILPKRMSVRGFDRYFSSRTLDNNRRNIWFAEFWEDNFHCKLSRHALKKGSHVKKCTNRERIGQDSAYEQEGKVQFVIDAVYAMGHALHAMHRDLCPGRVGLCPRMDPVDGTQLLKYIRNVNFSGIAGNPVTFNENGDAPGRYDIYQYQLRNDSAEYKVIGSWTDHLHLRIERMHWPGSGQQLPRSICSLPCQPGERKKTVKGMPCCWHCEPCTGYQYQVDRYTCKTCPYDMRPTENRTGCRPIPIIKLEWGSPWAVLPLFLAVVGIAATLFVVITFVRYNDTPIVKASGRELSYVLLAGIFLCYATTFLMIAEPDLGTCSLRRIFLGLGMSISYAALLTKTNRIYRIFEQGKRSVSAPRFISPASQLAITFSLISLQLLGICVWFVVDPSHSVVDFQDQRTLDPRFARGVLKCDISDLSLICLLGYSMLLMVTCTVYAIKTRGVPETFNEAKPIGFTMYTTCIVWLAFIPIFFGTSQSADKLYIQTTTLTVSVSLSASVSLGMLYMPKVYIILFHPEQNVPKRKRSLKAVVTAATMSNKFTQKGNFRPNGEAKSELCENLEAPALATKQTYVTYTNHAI

`COc1ccc(S(=O)(=O)n2ccc(NC(=O)c3ccccn3)c2)cc1Cl` [Example 64, N-(1-((3-chloro-4-methoxyphenyl)sulfonyl)-1H-pyrrol-3-yl)picolinamide]: the 50% effective concentration (EC50) was determined as 664 nM. Then `O=C(Nc1ccn(S(=O)(=O)Cc2ccccc2Cl)c1)c1ncccc1F` [Example 65, N-(1-((2-chlorobenzyl)sulfonyl)-1H-pyrrol-3-yl)-3-fluoropicolinamide], with 6970 nM; and `O=C(Nc1ccn(S(=O)(=O)Cc2ccccc2Cl)c1)c1csnn1` [Example 66, N-(1-((2-chlorobenzyl)sulfonyl)-1H-pyrrol-3-yl)-1,2,3-thiadiazole-4-carboxamide], with 307 nM; and `Cc1cccc(C)c1S(=O)(=O)n1ccc(NC(=O)c2ccco2)c1` [Example 67, N-(1-((2,6-dimethylphenyl)sulfonyl)-1H-pyrrol-3-yl)furan-2-carboxamide], with 6130 nM. Take `O=C(Nc1ccn(S(=O)(=O)Cc2ccc(Br)cc2)c1)c1ccccn1` [Example 70, N-(1-((4-bromobenzyl)sulfonyl)-1H-pyrrol-3-yl)picolinamide]: the EC50 was 144 nM. With `COc1ccccc1S(=O)(=O)n1ccc(NC(=O)c2ccccn2)c1` [Example 72, N-(1-((2-methoxyphenyl)sulfonyl)-1H-pyrrol-3-yl)picolinamide], the EC50 came out at 2060 nM. Then `O=C(Nc1ccn(S(=O)(=O)c2ccccc2OC(F)F)c1)c1ccccn1` [Example 73, N-(1-((2-(difluoromethoxy)phenyl)sulfonyl)-1H-pyrrol-3-yl)picolinamide], with 570 nM; and `Cc1ccc(S(=O)(=O)n2ccc(NC(=O)c3ccccn3)c2)c(C)c1` [Example 74, N-(1-((2,4-dimethylphenyl)sulfonyl)-1H-pyrrol-3-yl)picolinamide], with 880 nM; and `Cc1ccc(S(=O)(=O)n2ccc(NC(=O)c3ccccn3)c2)cc1F` [Example 75, N-(1-((3-fluoro-4-methylphenyl)sulfonyl)-1H-pyrrol-3-yl)picolinamide], with 104 nM. For `Cc1cccc(Cl)c1S(=O)(=O)n1ccc(NC(=O)c2ccccn2)c1` [Example 76, N-(1-((2-chloro-6-methylphenyl)sulfonyl)-1H-pyrrol-3-yl)picolinamide], the EC50 came to 988 nM. Then `Cc1cc(S(=O)(=O)n2ccc(NC(=O)c3ccccn3)c2)ccc1F` [Example 77, N-(1-((4-fluoro-3-methylphenyl)sulfonyl)-1H-pyrrol-3-yl)picolinamide], with 396 nM. `O=C(Nc1ccn(S(=O)(=O)c2cc(Cl)ccc2Cl)c1)c1ccccn1` [Example 78, N-(1-((2,5-dichlorophenyl)sulfonyl)-1H-pyrrol-3-yl)picolinamide]: the EC50 stood at 57.6 nM.

In the case of `N#Cc1ccccc1S(=O)(=O)n1ccc(NC(=O)c2ccccn2)c1` [Example 79, N-(1-((2-cyanophenyl)sulfonyl)-1H-pyrrol-3-yl)picolinamide], the EC50 was found to be 489 nM. With `O=C(Nc1ccn(S(=O)(=O)c2ccc(F)c(F)c2)c1)c1nccs1` [Example 80, N-(1-((3,4-difluorophenyl)sulfonyl)-1H-pyrrol-3-yl)thiazole-2-carboxamide], the EC50 came to 1270 nM. As for `Cc1ccc(C)c(S(=O)(=O)n2ccc(NC(=O)c3ccccn3)c2)c1` [Example 81, N-(1-((2,5-dimethylphenyl)sulfonyl)-1H-pyrrol-3-yl)picolinamide], the figure is 228 nM; as for `Cc1ccc(S(=O)(=O)n2ccc(NC(=O)c3ccccn3)c2)cc1C` [Example 82, N-(1-((3,4-dimethylphenyl)sulfonyl)-1H-pyrrol-3-yl)picolinamide], 139 nM; as for `Cc1cc(S(=O)(=O)n2ccc(NC(=O)c3ccccn3)c2)ccc1Cl` [Example 83, N-(1-((4-chloro-3-methylphenyl)sulfonyl)-1H-pyrrol-3-yl)picolinamide], 447 nM. `O=C(Nc1ccn(S(=O)(=O)Cc2cccc(F)c2)c1)c1nccs1` [Example 84, N-(1-((3-fluorobenzyl)sulfonyl)-1H-pyrrol-3-yl)thiazole-2-carboxamide]: the EC50 amounted to 4800 nM. Then `O=C(Nc1ccn(S(=O)(=O)c2cccc(C(F)(F)F)c2)c1)c1ccccn1` [Example 85, N-(1-((3-(trifluoromethyl)phenyl)sulfonyl)-1H-pyrrol-3-yl)picolinamide], with 1620 nM; and `O=C(Nc1ccn(S(=O)(=O)Cc2ccccc2Cl)c1)c1ccc(Cl)cn1` [Example 86, 5-chloro-N-(1-((2-chlorobenzyl)sulfonyl)-1H-pyrrol-3-yl)picolinamide], with 7220 nM. As for `Cc1cc(F)ccc1S(=O)(=O)n1ccc(NC(=O)c2ccccn2)c1` [Example 87, N-(1-((4-fluoro-2-methylphenyl)sulfonyl)-1H-pyrrol-3-yl)picolinamide], the figure is 111 nM; as for `COc1cccc(S(=O)(=O)n2ccc(NC(=O)c3ccccn3)c2)c1` [Example 88, N-(1-((3-methoxyphenyl)sulfonyl)-1H-pyrrol-3-yl)picolinamide], 230 nM; as for `Cc1ccc(F)c(S(=O)(=O)n2ccc(NC(=O)c3ccccn3)c2)c1` [Example 89, N-(1-((2-fluoro-5-methylphenyl)sulfonyl)-1H-pyrrol-3-yl)picolinamide], 281 nM.

Take `O=C(Nc1ccn(S(=O)(=O)c2cccc(F)c2)c1)c1ccccn1` [Example 90, N-(1-((3-fluorophenyl)sulfonyl)-1H-pyrrol-3-yl)picolinamide]: the EC50 was determined as 178 nM.

`O=C(Nc1ccn(S(=O)(=O)Cc2cccc(F)c2)c1)c1ccco1` [Example 91, N-(1-((3-fluorobenzyl)sulfonyl)-1H-pyrrol-3-yl)furan-2-carboxamide]: the EC50 was found to be 6760 nM. For the molecule `O=C(Nc1ccn(S(=O)(=O)Cc2c(F)cccc2F)c1)c1ccccn1` [Example 92, N-(1-((2,6-difluorobenzyl)sulfonyl)-1H-pyrrol-3-yl)picolinamide], the EC50 turned out to be 153 nM. Then `O=C(Nc1ccn(S(=O)(=O)Cc2c(F)cccc2F)c1)c1nccs1` [Example 93, N-(1-((2,6-difluorobenzyl)sulfonyl)-1H-pyrrol-3-yl)thiazole-2-carboxamide], with 343 nM; and `CC(C)(C)OC(=O)C(c1ccccc1)S(=O)(=O)n1ccc(NC(=O)c2ccccn2)c1` (centres unmarked) [Example 94, tert-butyl 2-phenyl-2-((3-(picolinamido)-1H-pyrrol-1-yl)sulfonyl)acetate], with 14500 nM; and `O=C(Nc1ccn(S(=O)(=O)Cc2ccc(Cl)cc2)c1)c1ccccn1` [Example 95, N-(1-((4-chlorobenzyl)sulfonyl)-1H-pyrrol-3-yl)picolinamide], with 336 nM. As for `CC(c1ccccc1)S(=O)(=O)n1ccc(NC(=O)c2ccccn2)c1` (centres unmarked) [Example 96, N-(1-((1-phenylethyl)sulfonyl)-1H-pyrrol-3-yl)picolinamide], the figure is 2300 nM; as for `Cc1ccc(C(=O)Nc2ccn(S(=O)(=O)Cc3ccc(Cl)cc3)c2)nc1` [Example 97, N-(1-((4-chlorobenzyl)sulfonyl)-1H-pyrrol-3-yl)-5-methylpicolinamide], 431 nM; as for `O=C(Nc1ccn(S(=O)(=O)Cc2c(Cl)cccc2Cl)c1)c1ccccn1` [Example 98, N-(1-((2,6-dichlorobenzyl)sulfonyl)-1H-pyrrol-3-yl)picolinamide], 119 nM. Then `O=C(Nc1ccn(S(=O)(=O)c2ccc(Cl)c(Cl)c2)c1)c1ccccn1` [Example 100, N-(1-((3,4-dichlorophenyl)sulfonyl)-1H-pyrrol-3-yl)picolinamide], with 466 nM.

Turning to `COc1ccc(S(=O)(=O)n2ccc(NC(=O)c3ccccn3)c2)cc1OC` [Example 101, N-(1-((3,4-dimethoxyphenyl)sulfonyl)-1H-pyrrol-3-yl)picolinamide], the EC50 was determined as 5730 nM. `O=C(Nc1ccn(S(=O)(=O)c2ccc(Cl)c(C(F)(F)F)c2)c1)c1ccccn1` [Example 102, N-(1-((4-chloro-3-(trifluoromethyl)phenyl)sulfonyl)-1H-pyrrol-3-yl)picolinamide]: the half-maximal effective concentration (EC50) is 5120 nM. In the case of `O=C(Nc1ccn(S(=O)(=O)c2ccc(Cl)c(F)c2)c1)c1ccccn1` [Example 103, N-(1-((4-chloro-3-fluorophenyl)sulfonyl)-1H-pyrrol-3-yl)picolinamide], the EC50 worked out at 389 nM. Then `O=C(Nc1ccn(S(=O)(=O)c2ccc(C(F)(F)F)c(F)c2)c1)c1ccccn1` [Example 104, N-(1-((3-fluoro-4-(trifluoromethyl)phenyl)sulfonyl)-1H-pyrrol-3-yl)picolinamide], with 4020 nM; and `O=C(Nc1ccn(S(=O)(=O)C(F)c2ccccc2F)c1)c1ccccn1` (centres unmarked) [Example 105, N-(1-((fluoro(2-fluorophenyl)methyl)sulfonyl)-1H-pyrrol-3-yl)picolinamide], with 426 nM; and `CC(c1ccccc1Cl)S(=O)(=O)n1ccc(NC(=O)c2ccccn2)c1` (centres unmarked) [Example 106, N-(1-((1-(2-chlorophenyl)ethyl)sulfonyl)-1H-pyrrol-3-yl)picolinamide], with 1050 nM. In the case of `O=C(Nc1ccn(S(=O)(=O)c2cc(F)c(F)cc2Cl)c1)c1ccccn1` [Example 107, N-(1-((2-chloro-4,5-difluorophenyl)sulfonyl)-1H-pyrrol-3-yl)picolinamide], the EC50 amounted to 158 nM. In the case of `Cc1cc(S(=O)(=O)n2ccc(NC(=O)c3ccccn3)c2)c(Cl)cc1Cl` [Example 108, N-(1-((2,4-dichloro-5-methylphenyl)sulfonyl)-1H-pyrrol-3-yl)picolinamide], the EC50 was found to be 21100 nM. For `CC(c1ccc(Cl)cc1)S(=O)(=O)n1ccc(NC(=O)c2ccccn2)c1` (centres unmarked) [Example 109, N-(1-((1-(4-chlorophenyl)ethyl)sulfonyl)-1H-pyrrol-3-yl)picolinamide], the EC50 came to 1890 nM. As for `O=C(Nc1ccn(S(=O)(=O)c2cc(F)c(F)cc2F)c1)c1ccccn1` [Example 110, N-(1-((2,4,5-trifluorophenyl)sulfonyl)-1H-pyrrol-3-yl)picolinamide], the figure is 226 nM; as for `O=C(Nc1cn(S(=O)(=O)c2ccc(Cl)cc2)c2ccccc12)c1ccccn1` [Example 111, N-(1-((4-chlorophenyl)sulfonyl)-1H-indol-3-yl)picolinamide], 12200 nM.
